# Laboratory results taken from patent publication US20240207422A1, “NERVE TARGETING PEPTIDE CONJUGATES AND METHODS OF USE” (Alume Biosciences, Inc., priority 2022, published 2024).
# Tested on: human nerve extract
# Experiment: Phage display selection on plates coated with human nerve extract (Plated Nerve2), NextGen sequence counts
# Format: binding
# Settings: unique sequence count (relative enrichment); Plated Nerve2 only
# Method: Several m13 phage libraries were constructed expressing randomized variants of a parent peptide (QVPWEEPYYVVKKS-SGGL; SEQ ID NO: 576). In particular, the first 14 amino acids of the parent peptide were randomized using degenerate oligonucleotide synthesis to obtain a diverse set of peptides with a mutation rate of about 50% per residue.
# To accomplish this, synthesis was carried out by the XXK codon design approach, where X is any base and K is G or T. To bias synthesis towards the parent sequence, synthesis was carried out at each X position with a mixture of about 70%-85% of the parent nucleotide and 15-30% of the remaining 3 nucleotides. The resulting molecules were inserted into fADL-1e (Antibody Design Laboratories), which is a type 3 phage display vector having a cloning site on the N-terminal side of the full-length gene III protein. The fusion proteins are directed to the periplasm by the PelB leader peptide, which is inserted in the vector […].
# Collectively, the phage display libraries used in the screens comprised about 600 million peptides, with sequencing analysis confirming a mutation rate of about 50% per residue.
# Phage libraries were independently processed, as follows, with five biological samples: two independent samples of excised human nerve tissue, one sample of a human nerve extract, and two independent samples of human muscle tissue, as follows:
# Human Nerve Extracts: Phage libraries were incubated for up to 24 hours at 4° C. in 96 well plates that had been coated with a human nerve extract. Plates were then washed with PBS and phage were eluted using 0.2M glycine pH 2.0. Phage supernatants where then neutralized with Tris pH 9.0 prior to plating on TG1 bacteria and LB agar plates. Colonies were counted to determine titer followed by DNA preparation of pools of phage and NextGen sequencing. After rounds of selection, phage were pooled and amplified for iterative selection. Phage that eluted by 0.2M glycine pH 2.0 (the nerve binders) at each round were sequenced. NextGen sequencing of pools after 2, 3 and 4 rounds of selection were used to isolate candidate sequences that were further analyzed using bioinformatics.
# NextGen sequencing of pools after 2, 3 and 4 rounds of selection were used to isolate candidate sequences from each of the five samples. These five data sets were then analyzed as described in the next section.
# Peptide and vector sequences were translated starting at the first start codon in the nucleotide sequence. […] Trimmed peptides with identical sequences were combined and quantified according to their frequency (count).
# Following processing, an R script was written to merge the unique peptide sequences (with counts 6 or greater) from the 5 different data sets to analyze the overlap between nerve and muscle binding activity.
# For the single Nerve2, Nerve3, and Plated Nerve2 (pn2) subsets, the number of counts for each group was set at a threshold giving rise to at least 100 peptides. […] As highlighted in yellow in FIG. 1B, the representative group also included 6 unique peptides overlapping between nerve2 and nerve3, 200 unique peptides overlapping between nerve2 and plated nerve2 (at least 60 counts), 4 unique peptides overlapping between nerve3 and plated nerve2. Finally, as highlighted in green in FIG. 1B, the representative group also included […] common to the nerve2, nerve3, and plated nerve2 sets.
row,Substance,Count
1,531 (LVSPTGPIYVMNKS) [compound 531],38
2,532 (QFASEEPYHVMKKP) [compound 532],38
3,533 (QFSRADSQYLVKNS) [compound 533],38
4,534 (QIPLQDPYHVVEKS) [compound 534],38
5,535 (QLLWGESYSIVKNY) [compound 535],38
6,536 (QLPSQTQNYYDTNA) [compound 536],38
7,537 (QLRSEDTYYTMQSY) [compound 537],38
8,538 (SVAGQQHYYVSTKP) [compound 538],38
9,539 (HLPCKKSFYACKKH) [compound 539],37
10,540 (HVRFAEPYYAGKTS) [compound 540],37
11,541 (LLTGAEPYYLGKRS) [compound 541],37
12,542 (QLPGAEAQNVVKYS) [compound 542],37
13,543 (QLRFDEHHSVVTHS) [compound 543],37
14,544 (QYPWEQRYYFERKS) [compound 544],37
15,545 (RVTWEGPYNSVKKS) [compound 545],37
16,546 (DVALGESHYNVKKY) [compound 546],36
17,547 (DVPNDLPSYLVKNS) [compound 547],36
18,548 (EFPYQESEYIVKQS) [compound 548],36
19,549 (GLPSKEPYYVVKPA) [compound 549],36
20,550 (HVPWDDQYYVWRTN) [compound 550],36
21,551 (HVQWDQTSYVVKNS) [compound 551],36
22,552 (HVTSDDSYYAVKNP) [compound 552],36
23,553 (QDPFGDLYYVTKMS) [compound 553],36
24,554 (QFPYDEPYNVVKKS) [compound 554],36
25,555 (QHPWKEQYYMATKP) [compound 555],36
26,556 (QLNSEEPYYHFKNY) [compound 556],36
27,557 (QLPTNDPYYVLMES) [compound 557],36
